According to US5216142A, “Anti-virals” (Efamol Holdings plc, priority 1989, dated 1993):
Values after ≈ are worked out from the molar mass of the structure shown. “Also recorded” adds a separate entry of the source. Read-outs that look alike come from different tables or passages of the source.

How the values were obtained:
LAV-2ROD = assay: Anti-HIV activity assay, LAV-2ROD (MT-4 cells, MTT method); type: cell-based; conditions: for Selectivity index (SI): CD50/ED50, LAV-2ROD; for EC50: MT4, 120 h, read-out: ED50 (50% effective dose)
Procedure: (§1) Results in relation to HIV virus were obtained by the method of Pauwels et al, Journal of Virological Methods 20, 309 to 321 (1988), as follows:
(§2) MT-4 cells (2.5×10^4 /well) were infected with HIV (100 CCID50) and incubated in the presence of varying concentrations of the test compounds (added immediately after virus infection). After five days incubation at 37° C. in a CO2 incubator, the number of viable cells was assessed by the MTT (tetrazolium) method. Anti-viral activity and cytotoxicity of the compounds are expressed as ED50 (50% effective dose) and CD50 (50% cytotoxic dose), respectively. SI (selectivity index=CD50 /ED50.
(§3) These are given in Table 8 and Table 9 below in relation to HTLV-IIIB and LAV-2ROD viruses.

in vitro = type: cell-based; conditions: human, mt-4 cells, CD50 (50% cytotoxic dose)
Procedure: as §1, §2

MT-4 cells = assay: in vitro; type: cell-based; conditions: human, 120 h
Procedure: as §1, §2

[1] = system: herpes simplex virus Type I (HSV I); assay: Inhibition of virus replication (plaque assay, BHK-21 cells); type: cell-based, Type 1, Troisbel strain; conditions: for Viral titre (inhibition of replication): control 9.0 × 10^8; for log reduction at 0.1 µg/mL: 0.1 mg/l; for log reduction at 0.5 µg/mL: 0.5 mg/l
Procedure: 1. Mono-layers of baby hamster kidney cells (BHK-21) are prepared in Petri dishes containing ETC medium (Eagle's minimal essential medium +10% tryptose phosphate broth +10% new born calf serum).
2. After incubation the medium is poured off to leave the layer of cells attached to the Petri dish. A solution containing virus, specifically herpes simplex virus Type I (HSV I) for example, in ETC medium is then added to the dish and incubated with intermittent rocking for one hour to allow the virus to adsorb to the cells of the mono-layer. Unadsorbed virus is then removed by pouring off the virus-containing medium and washing twice with new sterile medium. Then new medium is added to each Petri dish. At this stage various concentrations of drug can be added to the medium.
3. […] First the dishes are frozen to -70° C. and thawed to disrupt the mono-layer and break up the cells. Then the medium and the disrupted cells are transferred to bijou bottles and sonicated to break down the cells completely and to release all the virus particles the cells contain. The sonicated medium is then diluted with fresh sterile ETC medium to give concentrations of the original Petri dish fluid of 10^-2, 10^-4, 10^-6 and 10^-8.
4. The number of virus particles (plaque forming units) in the dilutions is then assayed. A standard number of BHK cells (usually 8×10^6) is added to 2 ml of the diluted solutions and incubated for one hour, with cautious, gentle shaking, and 8 ml of Eagle's minimal essential medium +2% new born calf serum + carboxymethyl cellulose is then added to the cell suspension. This medium has gelling properties which prevent spreading of the virus through the medium and which encourage the formation of discrete plaques in cell mono-layers. The medium from each dilution is then dispensed into Petri dishes and incubated for two to three days.
5. The number of plaques formed is then counted and the amount of active virus expressed as the number of plaque forming units (pfus) as follows. The medium is poured off and the cell mono-layer is fixed using 10% formol saline and stained with dilute carbol fuchsin. The number of plaques in each Petri dish is counted. Based on the dilutions, the number of plaque forming virus particles in the original solutions is calculated.
In the Table, the figures are the concentration of viral particles in pfu/ml present in the cells + medium at the end of the replication stage (3).

HTLV-IIIB = assay: Anti-HIV activity assay, HTLV-IIIB (MT-4 cells, MTT method); type: cell-based; conditions: for Selectivity index (SI): CD50/ED50, HTLV-IIIB; for EC50: Human immunodeficiency virus 1, MT4, 120 h, MT-4 cells, five days, HTLV-IIIB, read-out: ED50 (50% effective dose)
Procedure: as §1, §2, §3

herpes simplex = assay: Topical application to herpetic lesion; type: in vivo, human; conditions: ointment or cream 2% by weight, 1 to 5 mg/cm^2 three times daily for one week; after three days
Procedure: Example (6) Ointment or cream for topical administration against herpes simplex, containing 2% by weight GLA-AZT. It may be applied to a human afflicted with a herpetic lesion at the afflicted sites at a rate of 1 to 5 mg/cm^2 three times daily for a period of one week.

[2] = system: herpes simplex virus Type I; assay: Inactivation of virus (30 minutes incubation, plaque assay); type: cell-based, Type 1, Troisbel strain; conditions: for Virus titre (inactivation of virus): 30 minutes, control 5.4 × 10^4 (GLA-alcohol), 4.5 × 10^4 (GLA-AZT)
Procedure: 1. A virus solution containing 2×10^5 pfu/ml is prepared in phosphate buffered saline (Dulbecco's A).
2. The compound to be tested is made up in Dulbecco's medium A in a suitable range of dilutions.
3. Equal volumes of the virus and drug solution are mixed together. Control solutions without drug are also used.
4. The virus and drug are incubated for an appropriate period of time, in this example, thirty minutes.
5. The numbers of active viral particles in the solution are assayed as in items 4 and 5 under A.
The results are shown below (Table 6). In the Table, the figures are concentrations of viral particles present after incubation of the virus for 30 minutes with solutions of the drugs.

adenosine deaminase = conditions: human plasma; cited from earlier work
viral polymerases = conditions: tested lacking the phosphate groups; cited from earlier work
Absolute solubilities = type: physicochemical
[3] = system: herpes simplex virus Type I; conditions: known, e.g. E. de Klerk et al 1980; cited from earlier work
[4] = system: herpes simplex virus Type I (HSV I); conditions: cited from earlier work; for Activity against herpes viruses (in words): herpes zoster and herpes simplex
[5] = cited from earlier work
[6] = MT-4 cells, five days, LAV-2ROD
[7] = chloroform, organic solvent or mixture, CHCl3 98 to 99% pure, with 1% balance ethanol to stabilise, read-out: Absolute solubility in CHCl3
[8] = in water, read-out: Absolute solubility in water
[9] = Human alphaherpesvirus 1, BHK-21, 24 h, read-out: Inhibition of viral replication (log10 reduction in virus titre)

SMILES | Selectivity index (SI) (LAV-2ROD) | EC50 (LAV-2ROD; [6]) [µg/mL] | CC50 at 120 h (in vitro) [µg/mL] | CD50 (50% cytotoxic dose) (MT-4 cells) [µg/mL] | % in chloroform phase (partition co-efficients, water/chloroform) [%] | Selectivity index (SI) (HTLV-IIIB) | EC50 (HTLV-IIIB) [µg/mL] | Virucidal activity / inactivation of herpes virus (in words) [2] | solubility (Absolute solubilities; [7]) [µg/mL] | solubility (Absolute solubilities; [8]) [µg/mL] | Inactivation of virus (in words) ([2]; up to 50 mg/l) | also measured
CCCCC/C=C\C/C=C\C/C=C\CCCCC(=O)OC[C@H]1O[C@@H](n2cc(C)c(=O)[nH]c2=O)C[C@@H]1N=[N+]=[N-] [AK 1, GLA - 3'azido-3'-deoxythymidine] | 9770 | 0.000858 (≈ 0.00163 µM) | 6.03 (≈ 11.4 µM) | 8.3825 | > 99 | 7993 | 0.000754 (≈ 0.00143 µM) | virucidal | – | – | – | Viral titre (inhibition of replication) ([1]; 25 μg/ml (47.5 × 10^-6 molar)): 1.02 × 10^8 pfu/ml; Viral titre (inhibition of replication) ([1]; 50 μg/ml (95.0 × 10^-6 molar)): < 1.0 × 10^2 pfu/ml; Inhibition of herpes virus replication (in words) ([1]; listed as AZT-GLA): to inhibit its replication; Inhibition of herpes virus replication (in words) ([1]; listed as GLA-AZT): able to inhibit viral replication effectively; also recorded: gains the property of inhibiting herpes virus replication; Inhibition of viral replication (in words) ([1]; up to 100 mg/l): no inhibition; Reduction in the size of the lesion (herpes simplex): Reduction in the size of the lesion is noted; Virus titre (inactivation of virus) ([2]; 5 μg/ml): 2.7 × 10^3; Virus titre (inactivation of virus) ([2]; 25 μg/ml): < 1.0 × 10^2; log reduction at 1 µg/mL ([2]; Human alphaherpesvirus 1, 0.5 h, 1 mg/l, read-out: Inactivation of virus (log10 reduction in virus titre)): 1; log reduction at 5 µg/mL ([2]; Human alphaherpesvirus 1, 0.5 h, 5 mg/l, read-out: Inactivation of virus (log10 reduction in virus titre)): 2; Virucidal activity / inactivation of herpes virus (in words) ([2]; listed as AZT-GLA): able both to inactivate the herpes virus; Virucidal activity / inactivation of herpes virus (in words) ([2]; listed as GLA-AZT): more effective
Nc1ncnc2c1ncn2[C@H]1CC[C@@H](CO)O1 [ddA] | – | – | – | – | – | – | – | – | – | – | – | Conversion of ddA to ddI (adenosine deaminase): within minutes
Nc1nc2c(ncn2COCCO)c(=O)[nH]1 [AK 9, Acyclovir, reference compound] | < 1 | – | 300 (≈ 1330 µM) | 397.5805 | 1 | < 1 | > 1000 | – | 6 (≈ 26.6 µM) | 1590 (≈ 7060 µM) | no inactivation | EC50 (LAV-2ROD): > 10000 µg/mL; Activity against viral polymerases (in words) (viral polymerases): inactive; log reduction at 0.1 µg/mL [1, 9]: 2; log reduction at 0.5 µg/mL [1, 9]: 2.3
Cc1cn([C@H]2C[C@H](N=[N+]=[N-])[C@@H](CO)O2)c(=O)[nH]c1=O [AK 7, zidovudine, reference compound] | 2928 | 0.00053 (≈ 0.00198 µM) | 1.54 (≈ 5.75 µM) | 1.5633 | 15 | 4131 | 0.000372 (≈ 0.00139 µM) | no effect | – | – | no inactivation | Effect on inactivation of herpes simplex virus (in words) [3]: no effect; Activity against viral polymerases (in words) (viral polymerases): inactive; Activity against herpes viruses (in words) [4]: inactive; Effect on replication of herpes simplex virus (in words) ([4]; known, e.g. E. de Klerk et al 1980): no effect; Inhibition of herpes virus replication (in words) ([1]; listed as AZT): no effect; also recorded: not found; Inhibition of viral replication (in words) ([1]; up to 100 mg/l): No inhibition; Excreted unchanged into the urine ([5]; in vivo): Fifteen to twenty; Metabolised by hepatic glucuronidation ([5]; to 3'-azido-2'-3'-dideoxy-5'-glucuronyl thymidine): seventy five
CCCCC/C=C\C/C=C\C/C=C\CCCCC(=O)OCCOCn1cnc2c(=O)[nH]c(N)nc21 [AK 5] | < 1 | > 40 | 17.2 (≈ 35.4 µM) | 18.7751 | > 99 | < 1 | > 40 | lacking in this activity | > 50000 | 28 (≈ 57.7 µM) | no inactivation | log reduction at 0.1 µg/mL [1, 9]: 1; log reduction at 0.5 µg/mL [1, 9]: 2.2
Cc1cn2c(nc1=O)O[C@@H]1C[C@H]2O[C@@H]1CO [AK 8, Anhydrothymidine, reference compound] | 15 | 21.8 (≈ 97.2 µM) | – | – | 4 | 59 | 13.1 (≈ 58.4 µM) | no effect | – | – | – | Activity against herpes viruses (in words) [4]: inactive; Inhibition of herpes virus replication (in words) [1]: no effect; Inhibition of viral replication (in words) ([1]; concentration not given, Table 7): no inhibition; Inactivation of virus (in words) ([2]; 10 mg/l): no inactivation; log reduction at 25 µg/mL ([2]; Human alphaherpesvirus 1, 0.5 h, 25 mg/l, read-out: Inactivation of virus (log10 reduction in virus titre)): 0.7
CCCCC/C=C\C/C=C\CCCCCCCC(=O)OCCOCn1cnc2c(=O)[nH]c(N)nc21 [AK 6] | < 1 | > 100 | – | – | > 99 | < 1 | > 40 | lacking in this activity | > 50000 | 14 (≈ 28.7 µM) | no inactivation | log reduction at 1 µg/mL ([1]; Human alphaherpesvirus 1, BHK-21, 24 h, 1 mg/l, read-out: Inhibition of viral replication (log10 reduction in virus titre)): 2.4; log reduction at 5 µg/mL ([1]; Human alphaherpesvirus 1, BHK-21, 24 h, 5 mg/l, read-out: Inhibition of viral replication (log10 reduction in virus titre)): 4.2
